Assay results as given in patent US10369123B2, “Perk activator for the treatment of neurodegenerative diseases” (DEUTSCHES ZENTRUM FÜR NEURODEGENERATIVE ERKRANKUNGEN E.V. …, priority 2014, dated 2019).

Target: T1, PERK (Homo sapiens, UniProt Q9NZJ5)
T1 sequence (Q9NZJ5 30-1116): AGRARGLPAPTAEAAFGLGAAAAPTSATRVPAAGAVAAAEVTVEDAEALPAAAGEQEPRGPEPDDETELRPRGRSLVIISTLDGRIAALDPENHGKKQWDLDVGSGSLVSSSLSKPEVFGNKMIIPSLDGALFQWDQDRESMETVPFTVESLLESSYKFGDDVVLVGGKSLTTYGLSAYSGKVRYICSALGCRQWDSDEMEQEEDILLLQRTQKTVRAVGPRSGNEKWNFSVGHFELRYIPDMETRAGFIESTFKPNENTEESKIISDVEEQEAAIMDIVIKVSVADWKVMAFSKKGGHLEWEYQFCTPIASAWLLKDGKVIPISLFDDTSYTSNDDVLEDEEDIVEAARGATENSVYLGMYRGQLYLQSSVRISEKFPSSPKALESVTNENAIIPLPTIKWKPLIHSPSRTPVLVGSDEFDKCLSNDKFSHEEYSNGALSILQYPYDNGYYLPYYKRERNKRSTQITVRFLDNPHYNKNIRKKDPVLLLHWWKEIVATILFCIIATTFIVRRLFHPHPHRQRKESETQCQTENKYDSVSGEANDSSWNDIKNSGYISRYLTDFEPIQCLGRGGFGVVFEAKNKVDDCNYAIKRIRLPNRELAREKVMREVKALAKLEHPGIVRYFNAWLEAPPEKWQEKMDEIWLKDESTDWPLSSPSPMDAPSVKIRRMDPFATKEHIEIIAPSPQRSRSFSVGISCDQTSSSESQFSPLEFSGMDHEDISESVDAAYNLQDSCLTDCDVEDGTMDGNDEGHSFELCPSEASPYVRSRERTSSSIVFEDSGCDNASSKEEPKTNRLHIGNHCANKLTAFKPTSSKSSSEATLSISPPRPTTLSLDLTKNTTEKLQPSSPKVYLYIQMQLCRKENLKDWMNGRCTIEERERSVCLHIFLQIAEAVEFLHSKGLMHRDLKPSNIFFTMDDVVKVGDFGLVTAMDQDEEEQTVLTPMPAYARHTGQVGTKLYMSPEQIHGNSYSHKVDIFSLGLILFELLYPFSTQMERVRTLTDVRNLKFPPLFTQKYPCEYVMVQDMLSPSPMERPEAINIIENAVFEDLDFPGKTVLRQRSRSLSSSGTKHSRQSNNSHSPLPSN
Test: Western blot for pEIF2A and pNRF2, annonacin model of tauopathy
Type: cell-based
Design: endogenous in cells; host or cells: LUHMES neurons (differentiated, human); in A5 transduced with lentivirus for 3R-/4R-tau or mCherry, not for PERK
Conditions: in the presence of 25 nM annonacin, 48 h
Description: Nunc™ Nunclon™ Delta 6-well (for protein and mRNA) or 48-well (for cell assays) plates (Thermo Fisher Scientific, Waltham, Mass., USA) were coated with 100 μg/ml poly-L-lysine (Sigma-Aldrich, St. Louis, Mo., USA) and 5 μg/ml fibronectin (Sigma-Aldrich). LUHMES (Lund Human Mesencephalic) cells, derived from human embryonic ventral mesencephalic cells by conditional immortalization (Tet-off v-myc over-expression) were seeded out in a concentration of 130,000 cells/cm^2 to achieve a confluence of 50%. They were then differentiated for 8 days in a medium of DMEM/F12 (Sigma-Aldrich), 1 μg/ml tetracycline, […] and 490 μg/ml dbcAMP into post-mitotic neurons with a dopaminergic phenotype (Lotharius et al. 2005). […]
Protein was extracted by scraping the cells from the culture plate with Mammalian Protein Extraction Reagent (M-PER, Thermo Fisher Scientific) and 1× cOmplete Protease Inhibitor Cocktail Tablets (Hoffmann-La Roche, Basel, Switzerland) and 1× PhosSTOP Phosphatase Inhibitor Cocktail Tablets (Hoffmann-La Roche). […] Protein concentrations were determined using the BCA kit (Thermo Fisher Scientific) by heating the samples at 60° C. for 30 min and measuring the absorption on the NanoDrop 2000c Spectrophotometer (Thermo Fisher Scientific). […]

Structure (SMILES) | pNRF2 level (PERK activator 200 nM) | pEIF2A level (PERK inhibitor 300 nM)
CCN(CC)CCC(=O)N1N=C(c2c(-c3ccccc3)c3cc(Br)ccc3[nH]c2=O)CC1c1ccc(Br)cc1 (centres unmarked) [CCT020312, 6-bromo-3-[5-(4-bromo-phenyl)-1-(3-diethylamino-propionyl)-4,5-dihydro-1H-pyrazol-3-yl]-4-phenyl-1H-quinolin-2-one] | increased only pNRF2 significantly | 
Cn1cc(-c2ccc3c(c2)CCN3C(=O)Cc2cccc(C(F)(F)F)c2)c2c(N)ncnc21 [GSK2606414, reference compound] |  | reduced pEIF2A levels significantly
